# Measured values reported in ChEMBL document CHEMBL5137100, “N-Alkyl-2-Quinolonopyrones Demonstrate Antimicrobial Activity against ESKAPE Pathogens Including Staphylococcus aureus” (2022).
# Columns and labels:
# Assay type in all cases: functional
# Details in all cases: time 18-20 hrs
# [1] = test system: Staphylococcus epidermidis; experiment: Antibacterial activity against Staphylococcus epidermidis GP-017 ATCC 12228 assessed as reduction in bacterial growth in CAMHB incubated for 18 to 20 hrs by broth dilution method
# Staphylococcus aureus [2] = experiment: Antibacterial activity against methicillin-resistant Staphylococcus aureus GP-020 ATCC 43300 assessed as reduction in bacterial growth in CAMHB incubated for 18 to 20 hrs by broth dilution method
# Staphylococcus aureus [3] = experiment: Antibacterial activity against methicillin-resistant Staphylococcus aureus GP-021 ATCC 33591 assessed as reduction in bacterial growth in CAMHB incubated for 18 to 20 hrs by broth dilution method
# Staphylococcus aureus [4] = experiment: Antibacterial activity against daptomycin and methicillin resistant Staphylococcus aureus GP-036 assessed as reduction in bacterial growth in CAMHB incubated for 18 to 20 hrs by broth dilution method
# Enterococcus sp. [5] = experiment: Antibacterial activity against Enterococcus sp. GP-024 ATCC 35667 assessed as reduction in bacterial growth in CAMHB incubated for 18 to 20 hrs by broth dilution method
# Staphylococcus aureus [6] = experiment: Antibacterial activity against vancomycin intermediate and methicillin resistant Staphylococcus aureus GP-035 ATCC 700699 assessed as reduction in bacterial growth in CAMHB incubated for 18 to 20 hrs by broth dilution method
# [7] = test system: Staphylococcus epidermidis; experiment: Antibacterial activity against Staphylococcus epidermidis GP-033 NRS 60 assessed as reduction in bacterial growth in CAMHB incubated for 18 to 20 hrs by broth dilution method
# Enterococcus sp. [8] = experiment: Antibacterial activity against vancomycin resistant Enterococcus sp. GP-026 ATCC 700221 assessed as reduction in bacterial growth in CAMHB incubated for 18 to 20 hrs by broth dilution method
# Staphylococcus aureus [9] = experiment: Antibacterial activity against methicillin-sensitive Staphylococcus aureus GP-001 ATCC 25923 assessed as reduction in bacterial growth in CAMHB incubated for 18 to 20 hrs by broth dilution method
smiles,measurement,setting,value
CCCCCCCn1c(=O)c2c(O)cc(=O)oc2c2cc(Cl)ccc21,MIC80,[1],1 µg/mL
same,MIC80,Staphylococcus aureus [2],1 µg/mL
same,MIC80,Staphylococcus aureus [3],> 128 µg/mL
same,MIC80,Staphylococcus aureus [4],1 µg/mL
same,MIC80,Enterococcus sp. [5],> 128 µg/mL
same,MIC80,Staphylococcus aureus [6],128 µg/mL
same,MIC80,[7],8 µg/mL
same,MIC80,Enterococcus sp. [8],64 µg/mL
same,MIC80,Staphylococcus aureus [9],8 µg/mL
CCCCCCCn1c(=O)c2c(O)cc(=O)oc2c2cc(C(C)(C)C)ccc21,MIC80,[1],2 µg/mL
same,MIC80,Staphylococcus aureus [2],1 µg/mL
same,MIC80,Staphylococcus aureus [3],2 µg/mL
same,MIC80,Staphylococcus aureus [4],1 µg/mL
same,MIC80,Enterococcus sp. [5],> 128 µg/mL
same,MIC80,Staphylococcus aureus [6],1 µg/mL
same,MIC80,[7],0.25 µg/mL
same,MIC80,Enterococcus sp. [8],4 µg/mL
same,MIC80,Staphylococcus aureus [9],2 µg/mL
CCCCCCCn1c(=O)c2c(O)cc(=O)oc2c2cc(F)ccc21,MIC80,[1],4 µg/mL
same,MIC80,Staphylococcus aureus [2],2 µg/mL
same,MIC80,Staphylococcus aureus [3],4 µg/mL
same,MIC80,Staphylococcus aureus [4],2 µg/mL
same,MIC80,Enterococcus sp. [5],> 64 µg/mL
same,MIC80,Staphylococcus aureus [6],4 µg/mL
same,MIC80,[7],8 µg/mL
same,MIC80,Enterococcus sp. [8],32 µg/mL
same,MIC80,Staphylococcus aureus [9],8 µg/mL
CCCCCCCn1c(=O)c2c(O)cc(=O)oc2c2cc(OC)ccc21,MIC80,Staphylococcus aureus [2],≤ 8 µg/mL
same,MIC80,Staphylococcus aureus [3],≤ 8 µg/mL
same,MIC80,Staphylococcus aureus [9],8 µg/mL
CCCCCCCn1c(=O)c2c(O)cc(=O)oc2c2ccccc21,MIC80,[1],4 µg/mL
same,MIC80,Staphylococcus aureus [2],4 µg/mL
same,MIC80,Staphylococcus aureus [3],8 µg/mL
same,MIC80,Staphylococcus aureus [4],4 µg/mL
same,MIC80,Enterococcus sp. [5],> 128 µg/mL
same,MIC80,Staphylococcus aureus [6],8 µg/mL
same,MIC80,[7],4 µg/mL
same,MIC80,Enterococcus sp. [8],16 µg/mL
same,MIC80,Staphylococcus aureus [9],8 µg/mL
CCCCCCCn1c(=O)c2c(O)cc(=O)oc2c2cc(CCCCCC)ccc21,MIC80,Staphylococcus aureus [2],256 µg/mL
same,MIC80,Staphylococcus aureus [3],> 256 µg/mL
same,MIC80,Staphylococcus aureus [9],256 µg/mL
CCCCCCCCn1c(=O)c2c(O)cc(=O)oc2c2ccccc21,MIC80,[1],4 µg/mL
same,MIC80,Staphylococcus aureus [2],2 µg/mL
same,MIC80,Staphylococcus aureus [3],4 µg/mL
same,MIC80,Staphylococcus aureus [4],4 µg/mL
same,MIC80,Enterococcus sp. [5],> 128 µg/mL
same,MIC80,Staphylococcus aureus [6],4 µg/mL
same,MIC80,[7],1 µg/mL
same,MIC80,Enterococcus sp. [8],1 µg/mL
same,MIC80,Staphylococcus aureus [9],8 µg/mL
CCCCCCCCCCn1c(=O)c2c(O)cc(=O)oc2c2ccccc21,MIC80,[1],4 µg/mL
same,MIC80,Staphylococcus aureus [2],4 µg/mL
same,MIC80,Staphylococcus aureus [3],> 64 µg/mL
same,MIC80,Staphylococcus aureus [4],> 64 µg/mL
same,MIC80,Enterococcus sp. [5],> 64 µg/mL
same,MIC80,Staphylococcus aureus [6],> 64 µg/mL
same,MIC80,[7],> 64 µg/mL
same,MIC80,Enterococcus sp. [8],0.5 µg/mL
same,MIC80,Staphylococcus aureus [9],> 64 µg/mL
CCCCCCn1c(=O)c2c(O)cc(=O)oc2c2ccccc21,MIC80,[1],8 µg/mL
same,MIC80,Staphylococcus aureus [2],8 µg/mL
same,MIC80,Staphylococcus aureus [3],16 µg/mL
same,MIC80,Staphylococcus aureus [4],8 µg/mL
same,MIC80,Enterococcus sp. [5],> 64 µg/mL
same,MIC80,Staphylococcus aureus [6],8 µg/mL
same,MIC80,[7],2 µg/mL
same,MIC80,Enterococcus sp. [8],8 µg/mL
same,MIC80,Staphylococcus aureus [9],16 µg/mL
CCCCCCCn1c(=O)c2c(O)cc(=O)oc2c2c(C)cc(C)cc21,MIC80,Staphylococcus aureus [2],> 256 µg/mL
same,MIC80,Staphylococcus aureus [3],> 256 µg/mL
same,MIC80,Staphylococcus aureus [9],> 256 µg/mL
CCCCCCCCCn1c(=O)c2c(O)cc(=O)oc2c2ccccc21,MIC80,[1],2 µg/mL
same,MIC80,Staphylococcus aureus [2],2 µg/mL
same,MIC80,Staphylococcus aureus [3],2 µg/mL
same,MIC80,Staphylococcus aureus [4],1 µg/mL
same,MIC80,Enterococcus sp. [5],> 4 µg/mL
same,MIC80,Staphylococcus aureus [6],2 µg/mL
same,MIC80,[7],2 µg/mL
same,MIC80,Enterococcus sp. [8],4 µg/mL
same,MIC80,Staphylococcus aureus [9],4 µg/mL
CCCCCCCn1c(=O)c2c(O)cc(=O)oc2c2cc(C)ccc21,MIC80,[1],16 µg/mL
same,MIC80,Staphylococcus aureus [2],1 µg/mL
same,MIC80,Staphylococcus aureus [3],64 µg/mL
same,MIC80,Staphylococcus aureus [4],> 128 µg/mL
same,MIC80,Enterococcus sp. [5],128 µg/mL
same,MIC80,Staphylococcus aureus [6],> 128 µg/mL
same,MIC80,[7],> 64 µg/mL
same,MIC80,Enterococcus sp. [8],32 µg/mL
same,MIC80,Staphylococcus aureus [9],> 128 µg/mL
